Reference: patent US20210283163A1, “COMPOSITIONS AND METHODS FOR THE TREATMENT OF ACUTE AND CHRONIC PRURITIS” (Duke University, priority 2018, published 2021)

Legend:
hTRPA1 = hTRPA1 (Homo sapiens, UniProt O75762); test: Outside-out patch recordings, single channel activity, hTRPA1-expressing HEK293 cells; type: cell-based
Description: Inside-Out and Outside-Out Patch Clamp Recordings on HEK293 Cells. For inside-out recordings in TRPA1-expressing HEK293 cells, pipette resistance was 8-10 MΩ and, the internal solution contains: 126 mM K-gluconate, 10 mM NaCl, 1 mM MgCl2, 10 mM EGTA, 10 mM HEPES, and 2 Na-ATP (adjusted to pH 7.3 with KOH, osmolarity to 295-300 mOsm). The recordings were performed at room temperature in a bath solution (intracellular side) of 140 mM NaCl, 10 mM EGTA, 5 mM KCl, 2 mM CaCl2, 1 mM MgCl2, 10 mM HEPES, 10 mM glucose, adjusted to pH 7.4 with NaOH and osmolarity to 300-310 mOsm (Park et al., Neuron 2014, 82, 47-54). For comparison, outside-out recordings were also performed in TRPA1-expressing HEK293 cells in an extracellular solution of 140 mM NaCl, 5 mM KCl, 2 mM MgCl2, 10 mM HEPES, and 10 mM glucose (adjusted to pH 7.4 with NaOH and osmolarity to 300-310 mOsm). The internal solution contains 140 mM CsCl, 10 mM EGTA, 10 mM HEPES, and mM 2 Mg-ATP, adjusted to pH 7.3 with CsOH. Currents were low-pass filtered at 2 kHz and digitized at a sampling rate of 10 kHz with Digidata-1440A (Axon Instruments). The pClamp10 (Axon Instruments) software was used during experiments and data analysis. Opening and closing transitions of single channels were detected by using 50% of the threshold criterion. All events were carefully checked before the analysis. When superimposed openings were observed, the number of channels in the patch was estimated from the maximal number of superimposed openings. The single-channel open probability (Po) was determined using the following equation: Po=T′/T, where T′ is the total open time for a patch over time T.

mTRPA1 mutants (M1-M13) = test: Whole-cell patch clamp in CHO cells transfected with mutant mTrpa1 cDNAs (M1-M13); type: cell-based, mouse; conditions: for effect of mutations on induced currents: M2, M3, M4, M5, and M10; for induced currents in mutants: mutants M1, M6, M7, M8, M9, and M12, AITC 50 μM, miR-711 10 μM
Description: Constructs. The cDNAs of mouse pcDNA3.1-Trpa1, pcDNA3.1-Trpv1, pcDNA3.1-Trpv2, pcDNA3.1-Trpv3, and pcDNA3.1-Trpv4 were kindly provided Dr. Sun Work Hwang from Korea University. Mouse Trpa1 cDNA was subcloned into pCGN-HA backbone (Addgene) using In-Fusion HD Cloning Kit (Clontech Laboratories, CA). Q5 Site-Directed Mutagenesis Kit was used to generate mTrpa1 mutant (M1-M13) based on pCGN-mTrpa1.
Cell Culture and Transfection. CD4^+ Myla cell line was cultured in RPMI 1640 media (GIBCO), supplemented with 2 mM Glutamine (GIBCO), 100 U/mL IL-2 (Sigma), 100 U/mL IL-4 (Sigma), and 10% human AB serum (Sigma). HuT 102 cell line was cultured in RPMI 1640 supplemented with pyruvate, HEPES, and 10% (v/v) fetal bovine serum (HyClone). HEK293-hTRPA1 stable cell line was cultured in MEM (GIBCO) containing 2 mM Glutamine, 4 μg/mL Blasticidin, 10% FBS (v/v). B16 and CHO cells were cultured in high glucose (4.5 g/L) Dulbecco's Modified Eagle's Medium (GIBCO) containing 10% (v/v) fetal bovine serum (GIBCO). Culture media were supplemented with 50 units/mL of penicillin and 50 μg/mL streptomycin, and cultures were maintained with 5% CO2 in 37° C. incubator. Transfection (2 μg cDNA) was performed with Lipofectamine™ 2000 Reagent (Invitrogen) at 80% confluency and the transfected cells were cultured in the same media for 48 hr before electrophysiological and biochemical studies.
Whole-Cell Patch Clamp Recordings in HEK293 Cells, CHO Cells, and DRG Neurons. Whole-cell patch clamp recordings were performed at room temperature using an Axopatch-200B amplifier (Axon Instruments) with a Digidata 1440B (Axon Instruments). In this study, we only examined small-diameter mouse DRG neurons (<25 μM) and small-diameter human DRG neurons (<55 μM). The patch pipettes were pulled from borosilicate capillaries (World Precision Instruments) using a P-97 Flaming/Brown micropipette puller (Sutter Instrument). Pipette resistance was 4-6 MΩ for whole-cell and outside-out recording. For inward current recordings in mouse and human DRG neurons, HEK293 cells, and CHO cells, the internal solution contains (in mM): 140 CsCl, 10 EGTA, 10 HEPES, and 2 Mg-ATP, adjusted to pH 7.3 with CsOH. Whole cell recordings were performed in an extracellular solution that contains (in mM): 140 NaCl, 5 KCl, 2 MgCl2, 10 HEPES, and 10 glucose, adjusted to pH 7.4 with NaOH and osmolarity to 300-310 mOsm. […] Action potential recordings were performed in small-diameter DRG neurons, with the following solutions: i) internal pipette solution contains: 126 mM K-gluconate, 10 mM NaCl, 1 mM MgCl2, 10 mM EGTA, 10 mM HEPES and 2 mM Na-ATP, adjusted to pH 7.4 with KOH and osmolarity to 295-300 mOsm), and ii) extracellular solution contains: 140 mM NaCl, 5 mM KCl, 2 mM MgCl2, 2 mM CaCl2, 10 mM HEPES, 10 mM glucose, adjusted to pH 7.4 with KOH.

Sequence of hTRPA1 (O75762 whole entry): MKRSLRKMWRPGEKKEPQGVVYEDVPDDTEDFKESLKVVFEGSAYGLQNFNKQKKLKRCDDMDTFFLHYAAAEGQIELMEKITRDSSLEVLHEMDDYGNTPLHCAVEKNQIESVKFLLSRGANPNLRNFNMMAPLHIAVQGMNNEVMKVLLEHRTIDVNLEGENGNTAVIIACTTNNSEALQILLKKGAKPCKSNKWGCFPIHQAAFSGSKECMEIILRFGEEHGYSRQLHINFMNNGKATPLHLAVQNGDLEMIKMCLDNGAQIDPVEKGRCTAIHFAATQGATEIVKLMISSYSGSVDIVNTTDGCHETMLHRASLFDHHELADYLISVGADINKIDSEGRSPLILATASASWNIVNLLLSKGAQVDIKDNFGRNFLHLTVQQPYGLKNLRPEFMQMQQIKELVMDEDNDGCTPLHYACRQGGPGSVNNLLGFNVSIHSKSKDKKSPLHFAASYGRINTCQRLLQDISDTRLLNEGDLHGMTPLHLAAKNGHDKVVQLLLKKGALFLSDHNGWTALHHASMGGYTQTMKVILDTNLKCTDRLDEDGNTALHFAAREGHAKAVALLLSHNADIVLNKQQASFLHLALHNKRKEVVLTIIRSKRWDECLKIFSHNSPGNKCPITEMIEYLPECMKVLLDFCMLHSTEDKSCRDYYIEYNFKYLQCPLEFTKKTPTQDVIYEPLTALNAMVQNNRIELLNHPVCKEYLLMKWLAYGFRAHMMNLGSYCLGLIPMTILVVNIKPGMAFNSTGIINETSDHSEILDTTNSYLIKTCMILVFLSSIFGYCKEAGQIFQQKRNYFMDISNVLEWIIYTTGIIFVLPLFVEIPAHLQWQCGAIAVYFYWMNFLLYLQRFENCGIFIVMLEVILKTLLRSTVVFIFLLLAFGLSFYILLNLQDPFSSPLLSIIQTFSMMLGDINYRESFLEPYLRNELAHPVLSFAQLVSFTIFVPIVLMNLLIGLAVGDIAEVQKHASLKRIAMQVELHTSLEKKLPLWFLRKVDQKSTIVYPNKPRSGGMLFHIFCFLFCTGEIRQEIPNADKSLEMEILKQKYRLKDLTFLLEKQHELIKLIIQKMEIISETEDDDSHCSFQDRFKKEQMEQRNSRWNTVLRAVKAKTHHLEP

Row | block of miR-711-induced single channel activity (hTRPA1; outside-out patch) | Compound | AITC-induced currents in mutants (mTRPA1 mutants (M1-M13); M2, M3, M4, M5, M10, M11, and M13) | effect of mutations on induced currents (mTRPA1 mutants (M1-M13)) | induced currents in mutants (mTRPA1 mutants (M1-M13)) | single-channel opening events, extracellular surface (hTRPA1; bath application, miR-711 10 μM, AITC 50 μM, held at −60 mV) | duration of single channel opening (average open time) (hTRPA1; miR-711 10 μM versus AITC 50 μM) | single channel conductance (hTRPA1; mmu-miR-711 versus AITC)
1 | completely blocked | CCC(=N\O)/C(C)=C/c1ccc(F)cc1 [A967079, (1E,3E)-1-(4-Fluorophenyl)-2-methyl-1-pentene-3-one oxime] |  |  |  |  |  | 
2 |  | C=CCN=C=S [AITC] | unaltered | no effects | substantial reductions |  |  | 
3 |  | miR-711: mmu-miR-711: gggacccggggagagauguaag (SEQ ID NO: 5) (GGGACCCGGGGAGAGAUGUAAG; chemistry not given here) |  | no effects | substantial reductions | elicited single-channel opening events | significantly shorter | not significant
